Laboratory results reported in patent US20020055462A1, “Use” (priority 1999, published 2002).
“Also recorded” adds a separate entry of the source. Values belong to the molecule of their own block, whether it stands above or below them.

Tests used:
[1] = system: TNFα stimulated aromatase activity; test: TNFα-stimulated aromatase activity in cultured breast tissue fibroblasts; assay type: cell-based, human; settings: for inhibition of TNFα-stimulated aromatase activity (in words): stromal fibroblasts from normal or malignant breast tissue; for inhibition of TNFα (20 ng/ml) stimulated aromatase activity, significance: compound 10 μM, p<0.001; for inhibition of TNFα-stimulated aromatase activity: fibroblasts derived from reduction mammoplasty tissue, 24 h pre-treatment, then TNFα plus dexamethasone for 48 h
Protocol: (§1) Inhibition of basal and TNFα-stimulated aromatase activity by paclitaxel (Pax) in breast tissue fibroblasts. Paclitaxel was added to cells which were cultured for 24 h in 2% stripped foetal calf serum. TNFα was added, in the presence of dexamethasone (100 nmol/l) and cells cultured for a further 48 h in the same medium. Controls and cells with paclitaxel, but not TNFα, were also cultured in the presence of dexamethasone for a 48 h period. Aromatase activity was measured in intact monolayers after washing cells with phosphate buffered saline. (means±SD, n=3; a, p<0.001 versus controls; b, p<0.001 versus TNFα-stimulated aromatase activity).
(§2) Samples of breast adipose or tumour tissue were obtained from women undergoing reduction mammoplasty or lumpectomy after obtaining their informed consent.
(§3) Fibroblasts were cultured as previously described (2). Briefly, they were cultured in Eagles' modified minimal essential medium containing Hepes buffer (20 mmol/l), 10% foetal calf serum (FCS) and supplements. Cells were routinely passaged 2-3 times after which replicate 25 cm^2 flasks were seeded with fibroblasts and grown to confluency.
(§4) At the end of the treatment period aromatase activity was measured in intact monolayers using [1β-^3H] androstenedione (15-30 Ci/mmol, NEN-Du Pont, Stevenage, Herts, UK) over a 3-20 h period (2, 3). The number of cells was measured by counting cell nuclei using a Coulter counter. Experiments were carried out in triplicate and results shown are representative of 2-3 investigations.

[2] = system: aromatase; test: Basal aromatase activity in intact monolayers of cultured breast tissue fibroblasts; assay type: cell-based, human; settings: for inhibition of basal aromatase activity (in words): stromal fibroblasts from normal or malignant breast tissue; for inhibition of basal aromatase activity: fibroblasts derived from reduction mammoplasty tissue, 24 h pre-treatment then 48 h with dexamethasone 100 nmol/l
Protocol: as §1, §2, §3, §4

[3] = system: PGE2 stimulated aromatase activity; test: PGE2 stimulated aromatase activity in breast fibroblasts; assay type: cell-based, human; settings: for inhibition of stimulation of aromatase activity by PGE2 (in words): breast fibroblasts; for inhibition of PGE2 (10 μM) stimulated aromatase activity, significance: compound 10 μM, p<0.001
Protocol: (§5) The experimental protocol used was as described in the legend to FIG. 1.
as §3, §4

[4] = system: IL-6 plus IL-6sR stimulated aromatase activity; test: IL-6 plus IL-6sR stimulated aromatase activity in breast fibroblasts; assay type: cell-based, human; settings: for inhibition of stimulation of aromatase activity by IL-6 plus its soluble receptor (in words): breast fibroblasts; for inhibition of IL-6 plus IL-6sR (50 ng+100 ng/ml) stimulated aromatase activity, significance: compound 10 μM, p<0.001
Protocol: as §5, §3, §4

[5] = system: TNFα receptors; settings: human macrophages; cited from earlier work
[6] = system: TNFα stimulated aromatase activity; settings: high concentrations, 10-100 μM; cited from earlier work
[7] = system: B16 melanoma; settings: oral administration, mice; cited from earlier work
[8] = system: Meth A sarcoma; settings: oral administration, mice; cited from earlier work
[9] = system: MDA-MB-435 breast cancer cells; settings: oral administration, mice; cited from earlier work

Molecule: COc1cc2c(cc1OS(N)(=O)=O)CCC1C2CC[C@]2(C)C(=O)CCC12 (stereo partly drawn) [2-MeOEMATE, 2-methoxyoestrone-3-O-sulphamate]
inhibition of TNFα-stimulated aromatase activity (in words) [1]: inhibited; also recorded: reduced
inhibition of basal aromatase activity (in words) [2]: inhibited; also recorded: reduced
inhibition of stimulation of aromatase activity by PGE2 (in words) [3]: antagonise; also recorded: inhibited
inhibition of stimulation of aromatase activity by IL-6 plus its soluble receptor (in words) [4]: antagonise; also recorded: inhibited

Molecule: TNFα
stimulation of aromatase activity ([1]; in the presence of dexamethasone, reduction mammoplasty fibroblasts): 375%

inhibition of TNFα stimulation of aromatase activity at 5 μM (in words) ([1]; compound at 5 μM): did not significantly reduce
inhibition of TNFα stimulation of aromatase activity at highest concentration tested (in words) ([1]; highest concentration tested): some inhibitory effect
inhibition of TNFα-stimulated aromatase activity (in words) [1]: less effective
inhibition of TNFα-stimulated aromatase activity (in words) ([1]; listed as 16α-hydroxy derivative of 2-meOE2): limited ability to suppress
Molecule: COc1cc2c(cc1O)CC[C@@H]1[C@@H]2CC[C@]2(C)[C@@H](O)[C@H](O)C[C@@H]12 [2-meOE3, 2-methoxyoestriol]

Molecule: COc1cc2c(c(OC)c1OC)-c1ccc(OC)c(=O)cc1[C@@H](NC(C)=O)CC2 [Colchicine]
inhibition of TNFα-stimulated aromatase activity (in words) [1]: without effect
inhibition of TNFα-stimulated aromatase activity (in words) ([1]; listed as colchicine): unable to inhibit

inhibition of TNFα (20 ng/ml) stimulated aromatase activity, significance [1]: significant
inhibition of TNFα-stimulated aromatase activity (in words) [1]: significantly inhibited
inhibition of TNFα-stimulated aromatase activity (in words) ([1]; listed as Paclitaxel): inhibited
inhibition of basal aromatase activity (in words) [2]: inhibited
inhibition of stimulation of aromatase activity by PGE2 (in words) [3]: antagonise; also recorded: inhibited
inhibition of PGE2 (10 μM) stimulated aromatase activity, significance [3]: significant
inhibition of stimulation of aromatase activity by IL-6 plus its soluble receptor (in words) [4]: antagonise; also recorded: inhibited
inhibition of IL-6 plus IL-6sR (50 ng+100 ng/ml) stimulated aromatase activity, significance [4]: significant
Molecule: CC(=O)O[C@H]1C(=O)[C@@]2(C)[C@H]([C@H](OC(=O)c3ccccc3)[C@]3(O)C[C@H](OC(=O)[C@H](O)[C@@H](NC(=O)c4ccccc4)c4ccccc4)C(C)=C1C3(C)C)[C@]1(OC(C)=O)CO[C@@H]1C[C@@H]2O [paclitaxel]
inhibition at 0.1 µM ([1]; Homo sapiens, Fibroblast, compound at 0.1 μM, read-out: inhibition of TNFα stimulation of aromatase activity, dose-response study): 90%
inhibition of TNFα-stimulated aromatase activity [1]: 91%
inhibition of basal aromatase activity [2]: 88%
effect on TNFα receptors [5]: rapidly down-regulate

Molecule: C[C@]12CC[C@@H]3c4ccc(O)cc4CC[C@H]3[C@@H]1CC[C@@H]2O [oestradiol]
inhibition of TNFα stimulated aromatase activity in adipose stromal cells [6]: can inhibit

Molecule: C=C1[C@@H](C)[C@H]2[C@H](Cc3ccccc3)NC(=O)[C@]23OC(=O)/C=C/[C@H](O)CCC[C@@H](C)C/C=C/[C@H]3[C@@H]1O [Cytocholasin B]
inhibition of TNFα-stimulated aromatase activity (in words) [1]: without effect
inhibition of TNFα-stimulated aromatase activity (in words) ([1]; listed as cytocholasin B): unable to inhibit

Molecule: COc1cc2c(cc1O)CC[C@@H]1[C@@H]2CC[C@]2(C)[C@@H](O)CC[C@@H]12 [2-meOE2, 2-methoxyoestradiol]
inhibition of TNFα (20 ng/ml) stimulated aromatase activity, significance [1]: significant
inhibition of TNFα stimulation of aromatase activity, dose-response study ([1]; compound at 0.1 μM): 51%
inhibition of TNFα-stimulated aromatase activity [1]: 56%
inhibition of TNFα-stimulated aromatase activity (in words) [1]: inhibited
inhibition of TNFα-stimulated aromatase activity (in words) ([1]; listed as 2-methoxyoestradiol): significantly inhibited
inhibition of basal aromatase activity [2]: 46%
inhibition of basal aromatase activity (in words) [2]: inhibited
tumour growth [7]: significantly reduced
tumour growth [8]: significantly reduced
inhibition of stimulation of aromatase activity by PGE2 (in words) [3]: antagonise; also recorded: inhibited
inhibition of PGE2 (10 μM) stimulated aromatase activity, significance [3]: significant
inhibition of IL-6 plus IL-6sR (50 ng+100 ng/ml) stimulated aromatase activity, significance [4]: significant
tumour growth [9]: significantly reduced
